Test: Inhibition of Mycobacterium smegmatis MC2 155 recombinant type II NADH dehydrogenase ndh expressed in Escherichia coli assessed as rate of NADH oxidation in the presence of an electron acceptor menadione

**Q.** For COc1ccc(CN2CC[C@]34OC[C@H](C(C)C)N3C(=O)CC[C@@H]4C2)cc1, which IC50 is on record?
**A.** The IC50 was 890 nM.

**Q.** Which IC50 does the source give for CC(C)[C@H]1CO[C@]23CCN(Cc4ccc(Cl)cc4)C[C@H]2CCC(=O)N13 here?
**A.** The IC50 was 42 nM.

**Q.** Which IC50 does the source give for CC(C)[C@H]1CO[C@]23CCN(Cc4ccc(C(F)(F)F)nc4)C[C@H]2CCC(=O)N13 here?
**A.** The IC50 was 88 nM.
